Results on ten compounds are retold here after ChEMBL document CHEMBL5107965, “The progress of small-molecules and degraders against BCR-ABL for the treatment of CML” (Eur J Med Chem, 2022).

pIC50: −log10 of the molar value. Values after ≈ are worked out from the molar mass of the structure shown.

For data set [1], the target named is Protein cereblon/Tyrosine-protein kinase ABL1/Breakpoint cluster region protein (Homo sapiens, UniProt P00519+P11274+Q96SW2). The data set can be described thus: Protac activity at CRBN/BCR-ABL in human K562 cells assessed as reduction in BCR-ABL protein levels incubated for 6 hrs by Western blotting analysis. It is filed as cell-based.
Data set [2] deals with T1, Tyrosine-protein kinase ABL1 (Homo sapiens, UniProt P00519). The data set is described as follows: Binding affinity to human recombinant His-tagged full length ABL1 expressed in baculovirus expression system by TR-FRET assay.
The test system of data set [3] is K562. The data set is described as follows: Antiproliferative activity against human K562 cells assessed as cell growth inhibition measured after 24 hrs by WST-8 assay. The format is functional, cell-based. The note with it: K562, 24 h.
The test system of a further data set is KCL-22. The data set can be described thus: Antiproliferative activity against human KCL-22 cells assessed as cell growth inhibition measured after 24 hrs by WST-8 assay. It is filed as functional, cell-based. The conditions noted are these: KCL-22, 24 h.
The next data set relates to KU812 cell line. The data set can be described thus: Antiproliferative activity against human KU812 cell line assessed as cell growth inhibition measured after 24 hrs by WST-8 assay. It is filed as functional, cell-based. The conditions noted are these: KU812, 24 h.
Data set [4] concerns K562. The data set can be described thus: Antiproliferative activity against imatinib resistant human K562 cells assessed as cell growth inhibition measured after 24 hrs by MTT assay. It is filed as functional, cell-based. The note with it: K562, 24 h.
Data set [5] deals with K562. The data set is described as follows: Antiproliferative activity against imatinib resistant human K562 cells assessed as cell growth inhibition measured after 48 hrs by MTT assay. The note with it: K562, 48 h. The format is functional, cell-based.
Data set [6] can be described thus: Antiproliferative activity against human KM3 cells assessed as cell growth inhibition measured after 24 hrs by MTT assay. It is filed as functional, cell-based. The note with it: KM3, 24 h.
The nature of data set [7]: Antiproliferative activity against human KM3 cells assessed as cell growth inhibition measured after 48 hrs by MTT assay. It is filed as functional, cell-based. The note with it: KM3, 48 h.
A short description of data set [8]: Antiproliferative activity against human KM3 cells assessed as cell growth inhibition measured after 72 hrs by MTT assay. It is filed as functional, cell-based. The conditions noted are these: KM3, 72 h.
Data set [9] is described as follows: Cytotoxicity against human Hematopoietic stem cell assessed as cell growth inhibition measured after 48 hrs by MTT assay. The note with it: hematopoietic stem cells. It is filed as toxicity, cell-based.
In data set [10] the target is Tyrosine-protein kinase ABL1 (Homo sapiens, UniProt P00519, T315I). The data set can be described thus: Inhibition of Abl T315I mutant (unknown origin).
A further data set deals with T2, Aurora kinase A (Homo sapiens, UniProt O14965).
T2 sequence (O14965 whole entry): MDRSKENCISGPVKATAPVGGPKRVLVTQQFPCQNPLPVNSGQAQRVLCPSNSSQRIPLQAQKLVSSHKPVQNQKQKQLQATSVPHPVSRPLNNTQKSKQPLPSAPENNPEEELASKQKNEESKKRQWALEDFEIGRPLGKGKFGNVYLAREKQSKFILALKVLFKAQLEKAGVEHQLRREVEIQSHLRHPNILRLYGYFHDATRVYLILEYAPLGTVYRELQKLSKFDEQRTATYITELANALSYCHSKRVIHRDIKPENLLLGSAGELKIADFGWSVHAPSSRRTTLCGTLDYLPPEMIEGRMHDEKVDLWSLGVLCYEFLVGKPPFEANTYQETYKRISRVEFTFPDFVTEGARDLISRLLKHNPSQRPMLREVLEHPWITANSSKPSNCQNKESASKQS
The data set can be described thus: Inhibition of Aurora A (unknown origin).

The subject of data set [11] is K562. The data set can be described thus: Antiproliferative activity against imatinib resistant human K562 cells expressing BCR-ABL assessed as cell growth inhibition. The format is functional, cell-based.
Data set [12] concerns K562. The data set is described as follows: Antiproliferative activity against imatinib resistant human K562 cells expressing STAT5 assessed as cell growth inhibition. It is filed as functional, cell-based.
Data set [13] deals with T1, Tyrosine-protein kinase ABL1.
Description: Inhibition of wild type Abl (unknown origin)
The subject of data set [14] is BaF3. The data set is described as follows: Antiproliferative activity against mouse BaF3 cells harbouring ABL-T315I mutant assessed as cell growth inhibition measured after 72 hrs by MTT assay. The format is functional, cell-based. The note with it: BaF3, 72 h.
Data set [15] has as its system BaF3. The data set can be described thus: cells. The note with it: Mus musculus, BaF3, 72 h.
Description: Antiproliferative activity against mouse BaF3 cells harbouring wild type ABL assessed as cell growth inhibition measured after 72 hrs by MTT assay
The target of data set [16] is von Hippel-Lindau disease tumor suppressor/Tyrosine-protein kinase ABL1/Breakpoint cluster region protein (Homo sapiens, UniProt P00519+P11274+P40337). The data set can be described thus: Protac activity at VHL/BCR-ABL in human K562 cells assessed as reduction in BCR-ABL protein levels by immunoblotting analysis. The format is cell-based.
Data set [17] relates to K562. The data set is described as follows: Antiproliferative activity against human K562 cells assessed as cell growth inhibition measured after 24 hrs. It is filed as functional, cell-based. The conditions noted are these: K562, 24 h.
Data set [18] can be described thus: Half life in mouse at 10 mg/kg, po measured after upto 24 hrs by LC-MS/MS analysis. The format is ADME, organism-based. The conditions noted are these: in vivo.
Data set [19] is described as follows: Cmax in mouse at 10 mg/kg, po measured after upto 24 hrs by LC-MS/MS analysis. The format is ADME, organism-based. Details: dose 10 mg/kg, time < 24 hrs, route po. The note with it: in vivo.
The target of the next data set is Bcr/Abl fusion protein (Homo sapiens, UniProt P00519). The data set can be described thus: Inhibition of wild type BCR-ABL phosphorylation in mouse BaF3 cells incubated for 4 hrs by immunoblotting analysis. It is filed as cell-based.
Data set [20] can be described thus: Inhibition of BCR-ABL L248R mutant phosphorylation in mouse BaF3 cells incubated for 4 hrs by immunoblotting analysis. The format is cell-based. The conditions noted are these: BaF3, 4 h.
Data set [21] in a line: Inhibition of BCR-ABL Y253H mutant phosphorylation in mouse BaF3 cells incubated for 4 hrs by immunoblotting analysis. It is filed as cell-based. The conditions noted are these: BaF3, 4 h.
The target of data set [22] is BCR/ABL1 (Mus musculus, UniProt P00520, E255V). The data set can be described thus: Inhibition of BCR-ABL E255V mutant phosphorylation in mouse BaF3 cells incubated for 4 hrs by immunoblotting analysis. It is filed as cell-based.
The target in data set [23] is BCR/ABL1 (Mus musculus, UniProt P00520, T315I). The data set is described as follows: Inhibition of BCR-ABL T315I mutant phosphorylation in mouse BaF3 cells incubated for 4 hrs by immunoblotting analysis. The format is cell-based.
The nature of data set [24]: Plasma concentration in mouse at 30 mg/kg, measured after 1 hr. The format is ADME, organism-based.
The nature of data set [25]: Drug concentration in brain of mouse at 30 mg/kg, measured after 1 hr. The format is ADME, organism-based. The conditions noted are these: read-out: Ct.
Data set [26] in a line: Ratio of drug concentration in brain to plasma of mouse at 30 mg/kg, measured after 1 hr. It is filed as ADME, organism-based. The conditions noted are these: read-out: BPR.
For data set [27], the system named is K562. The data set can be described thus: Antiproliferative activity against human K562 cells assessed as cell growth inhibition. It is filed as functional, cell-based.
Data set [28] concerns the target Tyrosine-protein kinase Lyn (Homo sapiens, UniProt P07948). The data set is described as follows: Inhibition of LYN (unknown origin) in presence of [gamma33P]-ATP and ATP by ELISA method.
A short description of data set [29]: Tmax in BALB/c mouse at 30 mg/kg, po via gavage. The format is ADME, organism-based. The note with it: in vivo.
Data set [30] in a line: Cmax in BALB/c mouse at 30 mg/kg, po via gavage. The format is ADME, organism-based. Details: dose 30 mg/kg, route po. The note with it: in vivo.
Data set [31] can be described thus: Half life in BALB/c mouse at 30 mg/kg, po via gavage. The format is ADME, organism-based. The note with it: in vivo.
Data set [32] can be described thus: Oral bioavailability in BALB/c mouse at 30 mg/kg via gavage. The format is ADME, organism-based. The note with it: in vivo.
A short description of data set [33]: AUC in BALB/c mouse at 30 mg/kg, po via gavage. The format is ADME, organism-based. Details: dose 30 mg/kg, route po. The note with it: in vivo.
The subject of data set [34] is BaF3. The data set is described as follows: cells. The conditions noted are these: Mus musculus.

Sequence of BCR/ABL1 (Mus musculus, UniProt P00520, T315I) (P00520 whole entry T315I, looked up): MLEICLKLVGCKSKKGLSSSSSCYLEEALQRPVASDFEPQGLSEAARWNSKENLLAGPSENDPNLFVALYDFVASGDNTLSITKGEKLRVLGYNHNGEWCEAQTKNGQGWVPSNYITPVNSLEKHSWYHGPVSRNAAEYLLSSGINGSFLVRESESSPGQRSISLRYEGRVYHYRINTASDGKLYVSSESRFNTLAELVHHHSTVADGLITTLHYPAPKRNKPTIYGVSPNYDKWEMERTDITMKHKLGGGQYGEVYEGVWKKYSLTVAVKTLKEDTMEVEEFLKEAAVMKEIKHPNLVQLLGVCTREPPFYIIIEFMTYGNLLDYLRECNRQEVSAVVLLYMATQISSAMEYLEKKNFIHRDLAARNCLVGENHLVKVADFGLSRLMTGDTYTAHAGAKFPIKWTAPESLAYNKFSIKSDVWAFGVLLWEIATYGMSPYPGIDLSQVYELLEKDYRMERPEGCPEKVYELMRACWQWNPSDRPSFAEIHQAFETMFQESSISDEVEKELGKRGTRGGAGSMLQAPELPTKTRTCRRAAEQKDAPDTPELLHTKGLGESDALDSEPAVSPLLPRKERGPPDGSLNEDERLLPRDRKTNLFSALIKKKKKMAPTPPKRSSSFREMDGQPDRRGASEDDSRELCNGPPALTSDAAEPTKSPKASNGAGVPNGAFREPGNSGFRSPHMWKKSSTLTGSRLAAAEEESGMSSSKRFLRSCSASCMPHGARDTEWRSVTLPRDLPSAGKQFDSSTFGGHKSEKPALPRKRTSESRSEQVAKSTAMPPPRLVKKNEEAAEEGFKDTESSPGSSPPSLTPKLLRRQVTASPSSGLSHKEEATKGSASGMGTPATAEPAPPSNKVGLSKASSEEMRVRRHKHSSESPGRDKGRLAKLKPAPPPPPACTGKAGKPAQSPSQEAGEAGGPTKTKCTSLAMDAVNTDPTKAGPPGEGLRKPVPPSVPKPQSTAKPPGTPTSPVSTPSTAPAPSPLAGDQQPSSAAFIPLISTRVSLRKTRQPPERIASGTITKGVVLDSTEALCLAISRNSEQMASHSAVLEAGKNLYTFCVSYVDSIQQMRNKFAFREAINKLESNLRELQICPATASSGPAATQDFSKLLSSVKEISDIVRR
Sequence of BCR/ABL1 (Mus musculus, UniProt P00520, E255V) (P00520 whole entry E255V, looked up): as the sequence (P00520 whole entry T315I, looked up) above, with E255V, I315T counted along it
Sequence of Tyrosine-protein kinase Lyn (P07948 whole entry): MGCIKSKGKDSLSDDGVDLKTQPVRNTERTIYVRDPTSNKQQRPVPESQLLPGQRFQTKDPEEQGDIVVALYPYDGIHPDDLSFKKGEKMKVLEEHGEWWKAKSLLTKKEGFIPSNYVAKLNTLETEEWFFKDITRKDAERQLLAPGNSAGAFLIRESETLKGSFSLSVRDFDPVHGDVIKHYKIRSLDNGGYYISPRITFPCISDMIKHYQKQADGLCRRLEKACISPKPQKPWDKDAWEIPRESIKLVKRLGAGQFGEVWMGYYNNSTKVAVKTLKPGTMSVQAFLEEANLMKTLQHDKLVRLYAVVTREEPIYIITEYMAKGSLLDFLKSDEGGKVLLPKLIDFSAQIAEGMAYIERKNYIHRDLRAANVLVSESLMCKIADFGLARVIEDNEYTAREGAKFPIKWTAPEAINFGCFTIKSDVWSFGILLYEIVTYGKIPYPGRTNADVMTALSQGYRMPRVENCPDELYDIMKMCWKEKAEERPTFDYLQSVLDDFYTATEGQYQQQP

With `CN[C@@H](C)C(=O)N[C@H](C(=O)N1CCC[C@H]1c1nc(C(=O)c2cccc(OCCCOCC(=O)N3CCN(c4cc(Nc5ncc(C(=O)Nc6c(C)cccc6Cl)s5)nc(C)n4)CC3)c2)cs1)C1CCCCC1`, the DC50 in [1] amounted to 10 nM. Moreover, the pIC50 in data set [2] is 9.27; in the data set with K562 [3], 8.05; in the data set with KCL-22, 8.09; in the data set with KU812 cell line, 8.17.
Consider `COc1cc2c3cc1Oc1c(OC)c(OC)cc4c1[C@@H](Cc1ccc(O)c(c1)Oc1ccc(cc1)C[C@@H]3N(C)CC2)N(C)CC4` [BERBAMINE], for which the negative-log IC50 (pIC50) in the data set with K562 [4] was 4.77; in the data set on K562 [5] it was 4.95. Moreover, the figures for the IC50 in [6], in data set [7] and in data set [8] were 8.17 µg/mL (≈ 13.4 µM), 5.09 µg/mL (≈ 8.36 µM) and 3.84 µg/mL (≈ 6.31 µM), respectively. The half-inhibitory concentration (IC50) at 48 h in data set [9] worked out at 185 µg/mL (≈ 304 µM).
In the case of `CC(C)c1cc(CNc2nc(Nc3cc(C4CC4)[nH]n3)cc(N3CCN(C)CC3)n2)on1` [XL-228], the pIC50 in data set [10] is 7.85; against Aurora kinase A, 8.51; in the data set with K562 [11], 7.48; in the data set with K562 [12], 7.37; in [13], 8.30.
As to `O=C(Nc1c[nH]nc1-c1nc2ccc(CN3CCOCC3)cc2[nH]1)NC1CC1` [AT-9283], the results for the pIC50 with BaF3 [14] and with BaF3 [15] were 7.96 and 7.89, respectively.
On to `Cc1ncsc1-c1ccc(CNC(=O)[C@@H]2C[C@@H](O)CN2C(=O)[C@@H](NC(=O)COCCNc2ccc(C(=O)Nc3ccc(OC(F)(F)Cl)cc3)cc2-c2cc[nH]n2)C(C)(C)C)cc1`, for which the DC50 in data set [16] stood at 30 nM. In addition, in the data set on K562 [17], the pIC50 is 6.77. In data set [18], the half-life is 3.67 h. Moreover, in data set [19], the highest level (Cmax) was 536 ng/mL.
Turning to `Cc1ccc(C(=O)NNC(=O)c2c(C)cccc2Cl)cc1C#Cc1cnc2ccccc2c1` [VODOBATINIB], the pIC50 at Bcr/Abl fusion protein was 9.05; in data set [20] it was 6.78; in data set [21] it was 6.81; on BCR/ABL1 [22], 6.78; on BCR/ABL1 [23] it was 5.71. Further, the concentration at 1 h in data set [24] stood at 4800 ng/mL; in [25] it was 1900 ng/g. For the same compound, in data set [26], the Kp at 1 h turned out to be 0.4.
In the case of `COc1cc2c3cc1Oc1c(OC)c(OC)cc4c1[C@@H](Cc1ccc(OC(=O)c5ccc(Cl)cc5)c(c1)Oc1ccc(cc1)C[C@@H]3N(C)CC2)N(C)CC4`, the IC50 in the data set on K562 [27] worked out at 0.5 µg/mL (≈ 0.669 µM).
In the case of `Cc1ccc(NC(=O)c2ccc(CN3CC[C@H](N(C)C)C3)c(C(F)(F)F)c2)cc1Nc1nccc(-c2cncnc2)n1` [BAFETINIB], the pIC50 in data set [28] is 7.72. Further, in data set [29], the Tmax was determined as 2 h. This compound also showed a Cmax in data set [30] of 661 ng/mL. The half-life in data set [31] is 1 h. This compound also returned a bioavailability in data set [32] of 32%. The same compound came in with an AUC in data set [33] of 2290 ng·h/mL.
Regarding `Cc1cc(Nc2cc(N3CCN(C)CC3)nc(Sc3ccc(NC(=O)C4CC4)cc3)n2)n[nH]1` [TOZASERTIB], the negative-log IC50 (pIC50) in the data set with BaF3 [34] was 7.00.
As to `COC(=O)C[C@](O)(CCCC(C)(C)O)C(=O)O[C@@H]1C(OC)=C[C@]23CCCN2CCc2cc4c(cc2[C@H]13)OCO4` [OMACETAXINE MEPESUCCINATE], the IC50 in the data set on K562 [27] was 0.0439 µg/mL (≈ 0.0804 µM).
